“Also recorded” adds a separate entry of the source.
B1: siltuximab (antibody, chains of the INN, looked up, V domains shown)
VH: EVQLVESGGKLLKPGGSLKLSCAASGFTFSSFAMSWFRQSPEKRLEWVAEISSGGSYTYYPDTVTGRFTISRDNAKNTLYLEMSSLRSEDTAMYYCARGLWGYYALDYWGQGTSVTVSS
VL: QIVLIQSPAIMSASPGEKVTMTCSASSSVSYMYWYQQKPGSSPRLLIYDTSNLASGVPVRFSGSGSGTSYSLTISRMEAEDAATYYCQQWSGYPYTFGGGTKLEIK

Key:
[1] = tested on: MDSL cells; assay: Xenograft of MDSL cells in NSG mice; format: in vivo, mouse; conditions: 8 mg/kg weekly intraperitoneal; for spleen weight: NSG mice transplanted with MDSL cells
Experimental: (§1) (A) Cultured MDS-derived cell line (MDSL) cells were treated with tocilizumab or IgG for 1 hour at the indicated concentration. Cells were then challenged with human recombinant IL-6 (10 ng/mL) for 15 min followed by a western blot assay of p-STAT3. Actin was used as a loading control. (B) 1×10^4/well MDSL cells were seeded in a 96-well plate on day 0 in MDSL culture medium with 50 μg/mL tocilizumab or 50 μg/mL human IgG control. Relative cell number was assessed with CCK-8 reagent at the indicated time points. (C) 1×10^6 MDSL cells were transplanted into sub-lethally irradiated NSG recipient mice. 10 days after transplantation, mice were subjected to weekly treatment with tocilizumab (TCZ) or human IgG (8 mg/kg) by intraperitoneal administration. Engraftment was evaluated 60 days post transplantation via flow cytometry assays of hCD45+ mononuclear cells in the peripheral blood. N=5 in each group, data are presented as Mean±SD. (D) Quantification of the percentage of hCD45+ cells in C. (E-F) Colony-forming unit (CFU) assays in normal (E) and high risk MDS patient (F) bone marrow derived CD34+ cells. 1×10^3 normal (E) or 2×10^3 patient CD34+ cells (F) were seeded in MethoCult medium supplemented with human IgG or tocilizumab (50 μg/mL) on day 0. The number of colonies was accessed on day 14. Triplicate assay colonies were independently identified by two individuals. Data are presented as Mean±SD. E, G, M, GM, and GEMM represent BFU/CFU-E, CFU-G, CFU-M, CFU-GM, and CFU-GEMM, respectively, in both E and F.
NOD/SCID-IL2Rg mice (NSG) mice were purchased from the Jackson Laboratory (Stock #005557). 1×10^6 of MDS-derived cell line (MDSL) cells were retro-orbitally injected into 12-week-old sub-lethally irradiated (250 rad) female NSG mice. Ten days after transplantation, human IgG isotype control (BE0297, InVivoMab) or tocilizumab (Selleck) were administered at 8 mg/kg weekly via intraperitoneal injection. To evaluate the engraftment, peripheral blood was collected from tail vein on day 60. […]

[2] = tested on: MDSL cells; assay: Cell death in MDSL cells; format: cell-based, human
[3] = tested on: MDSL cells; assay: MDSL cell proliferation (CCK-8); format: cell-based; conditions: 50 μg/mL, vs human IgG control
Experimental: as §1, with “Data are presented as Mean±SD. E, G, M, GM, and GEMM represent BFU/CFU-E, CFU-G, CFU-M, CFU-GM, and CFU-GEMM, respectively, in both E and F.” left out

[4] = tested on: normal bone marrow CD34+ cells; assay: Colony-forming unit (CFU) assay, normal bone marrow CD34+ cells; format: cell-based; conditions: 50 μg/mL, day 14, vs human IgG
Experimental: as §1, with “(E-F) Colony-forming unit (CFU) assays in normal (E) and high risk MDS patient (F) bone marrow derived CD34+ cells. 1×10^3 normal (E) or 2×10^3 patient CD34+ cells (F) were seeded in MethoCult medium supplemented with human IgG or tocilizumab (50 μg/mL) on day 0. The number of colonies was accessed on day 14. Triplicate assay colonies were independently identified by two individuals. Data are presented as Mean±SD. E, G, M, GM, and GEMM represent BFU/CFU-E, CFU-G, CFU-M, CFU-GM, and CFU-GEMM, respectively, in both E and F.” left out
(§2) For the CFU assay, CD34+ cells were thawed in a 37° C. water bath. […] Cell viability was assessed with trypan blue staining and counted with Bio-Rad TC20 cell counter. […] 14 days after seeding, the CFU assay was ready for evaluation. Colonies were counted under an inverted microscope (EVOS M5000, Thermo Fisher), and the colonies were identified by two independent individuals.

[5] = tested on: p-STAT3; assay: Western blot of p-STAT3 in MDSL cells challenged with human recombinant IL-6; format: cell-based; conditions: 1 hour treatment, then human recombinant IL-6 10 ng/mL for 15 min, vs IgG
Experimental: as §1, with “Data are presented as Mean±SD. E, G, M, GM, and GEMM represent BFU/CFU-E, CFU-G, CFU-M, CFU-GM, and CFU-GEMM, respectively, in both E and F.” left out

[6] = tested on: high risk MDS patient bone marrow derived CD34+ cells; assay: Colony-forming unit (CFU) assay, high risk MDS patient bone marrow CD34+ cells; format: cell-based; conditions: CD34+ cells from high risk MDS patients, 50 μg/mL, day 14, vs human IgG
Experimental: as §1, with “(E-F) Colony-forming unit (CFU) assays in normal (E) and high risk MDS patient (F) bone marrow derived CD34+ cells. 1×10^3 normal (E) or 2×10^3 patient CD34+ cells (F) were seeded in MethoCult medium supplemented with human IgG or tocilizumab (50 μg/mL) on day 0. The number of colonies was accessed on day 14. Triplicate assay colonies were independently identified by two individuals. Data are presented as Mean±SD. E, G, M, GM, and GEMM represent BFU/CFU-E, CFU-G, CFU-M, CFU-GM, and CFU-GEMM, respectively, in both E and F.” left out
as §2

[7] = transfusion-dependent patients, low or intermediate-1-risk MDS, vs placebo; cited from earlier work

Molecule | spleen weight [1] | spleen weight ([1]; listed as Tocilizumab) | MDSL engraftment (hCD45+ mononuclear cells in the peripheral blood) ([1]; NSG mice, 60 days post transplantation, vs human IgG) | cell death [2] | cell proliferation (relative cell number, CCK-8) [3] | colony expansion or composition / colony numbers [4] | colony expansion or composition / colony numbers ([4]; listed as Tocilizumab) | p-STAT3 [5] | colony numbers / clonogenicity [6] | colony numbers / clonogenicity ([6]; listed as Tocilizumab) | RBC transfusions [7]
tocilizumab | reduces spleen weight | reduced the spleen weight | significantly reduced MDSL engraftment; also recorded: markedly reduced the engraftment | partial induction of cell death; also recorded: partially induces cell death | decreased cell proliferation; also recorded: reduces cell proliferation | no effects on the colony numbers | did not affect colony expansion or composition | significant reduction | markedly reduced; also recorded: reduces cell proliferation and colony formation; also recorded: reduces the colony numbers | significantly reduced clonogenicity | 
B1 |  |  |  |  |  |  |  |  |  |  | no reduction in RBC transfusions
